Assays:
Assay type in all cases: cell-based, human
MCF-7 cells [1] = test: Soft agar colony formation by MCF-7 cells with synthetic peptide added; conditions: after ten days, peptide replenished with every addition of medium
Description: To assess effect on soft agar colony formation, 5×10^5 MCF-7 cells per 60-mm dish were plated in triplicates with a top layer of 0.3% agar (BACTO Agar, Difco, Detroit Mich.) and a bottom layer of 0.5% agar (both in a-MEM). Peptide SEQ ID NO: 37 was added at the indicated concentrations upon plating and was replenished with every addition of medium. Every other day, 0.4 ml of medium was supplemented. After ten days, photographs were taken at high and low magnification and the surface area of all clones in five fields was measured with the imaging software ImageJ (NIH) or Metamorph.
(§1) 5×10^5 MCF-7 cells per 60-mm dish were plated in triplicates with a top layer of 0.3% agar (BACTO Agar, Difco, Detroit, Mich.) and a bottom layer of 0.5% agar (both in α-MEM). Peptide was added at the indicated concentrations upon plating and was replenished with every addition of medium. For the investigation of cell growth rates, MCF-7 cells were plated at 5000 cells/well in 24-well plates in the presence or absence of peptide. Effects of a synthetic peptide on MDA-MB-435 cells are shown in FIG. 9C after 10 days in the presence or absence of synthetic peptides. hOPN Exon-5 peptide (NAVSSEETNDFKQE) SEQ ID NO: 34 and scrambled hOPN-c peptide (SSEEQETGVEKASSNS) SEQ ID NO: 33 served as non-specific controls.

MCF-7 cells [2] = test: Cell growth rate of MCF-7 cells in 24-well plates with or without peptide; conditions: 5000 cells/well, daily cell counts
Description: Two control peptides (hOPN-c scrambled sequence SEQ ID NO: 33 and hOPN-exon5 SEQ ID NO: 34) had no effect (data not shown). […] For investigation of cell growth rates, MCF-7 cells were plated at 5000 cells/well in 24-well plates in the presence or absence of peptide. Daily, five wells per group were harvested by trypsinization and the cell numbers were determined in a Coulter™ Z-Series Counter.
as §1

MCF-7 cells [3] = test: Adhesion of MCF-7 cells to coated wells; conditions: 2 hours at 37° C., 96-well plate coated overnight
Description: 96-well polystyrene plates were coated with the indicated amounts of GST-OPN forms or control fibronectin ([…]) in […] at 4° C. overnight. The wells were washed twice with cold PBS followed by blocking with 1% BSA for 1 h at 37° C. MCF-7 parental cells were used to assay adhesion. Cells were trypsinized and treated with soybean trypsin inhibitor, then washed twice with PBS and resuspended in adhesion buffer (0.1% BSA, 1 mM sodium pyruvate, 2 mM MgCl2). Cells (2×10^4 cell/well) were added to the above 96-well plates and allowed to adhere at 37° C. for two hours. Non-adherent cells were removed by rinsing twice with PBS. Adherent cells were counted and photographed. For adhesion to aggregated OPN, 1 μg of GST or GST-OPN forms were added to 96-well plated in aggregation buffer (0.2 M NaCl, 0.05 M Tris-HCl, pH 7.6, 5 mM CaCl2 final concentration) and incubated at 4° C. overnight. All adhesion assays were performed with triplicate wells and were repeated at least three times.
Stably transfected cells were plated at 5000 cells/well (24-well plate) on day 0. On every consecutive day, five wells per cell line were harvested and the total number of cells was counted. […] Aggregation was assessed after 16 hours at increasing calcium concentrations. Consecutively denaturing, non-reducing SDS-PAGE and Western blotting for OPN was performed. […]

Substance	size of the clones formed in soft agar (MCF-7 cells [1])	cell growth (MCF-7 cells [2])	cell spreading of adhered cells on coated plastic (MCF-7 cells [3])
SSEEQETGVEKASSNS (Control peptide for OPNcPEP) [SEQ ID NO: 33, scrambled hOPN-c peptide, non-specific control, reference compound]	no effect		
SGSSEEKQNAVSSEET (Peptide representing a domain encompassing the splice junction of Exon 3 and 5) [SEQ ID NO: 8, OPNc peptide, domain around the splice junction of OPN variant-c]	enhanced soft agar clone formation	did not support the growth of cells in plastic dishes	
fibronectin			cell spreading
NAVSSEETNDFKQE (Control peptide derived from Exon 5) [SEQ ID NO: 34, hOPN Exon-5 peptide, non-specific control, reference compound]	no effect		
Ac-SGSSEEKQNAVSSEET-NH2 [SEQ ID NO: 37]	increasing the size of the clones formed in soft agar	no effect on cell growth	

— patent US8969020B2, “Peptide sequence that promotes tumor invasion” (MetaMol Theranostics LLC, priority 2005, dated 2015)
